Values of other authors as cited in US20030082231A1, “Coating for orally administered compositions” (priority 2001, published 2003).

Test system: sister chromatid exchanges (SCE) damage induced by benzo(a)pyrene

Substance: chlorophyllin
- genotoxic inhibition (frequency of sister chromatid exchanges) (SCE damage induced by benzo(a)pyrene, in vivo): about 80%
- cell proliferation kinetics (CPK) (chlorophyllin plus benzo(a)pyrene): inhibition of the cell proliferation kinetics
